Structures are written as SMILES. Where a name gives a salt, the structure may show the parent alone. Read-outs that look alike come from different tables or passages of the source.

The values below come from patent publication US6130250A, “Veterinary use of a pleuromutilin derivative” (priority 1996, dated 2000).

The subject of experiment [1] is S. hyodysenteriae. Nature of the experiment: Further challenge trial: treatment of swine dysentery. The format is in vivo, pigs. An excerpt: A group of 60 (3.5 to 4 weeks old) conventionally reared pigs are fed unmedicated food for 14 days then challenged by the oral route with the standard strain of S. hyodysenteriae (P18A). When clinical signs of disease are evident, pigs are allocated to six treatment groups of 8 pigs per group and fed antibiotic containing feed for 10 days, then unmedicated food for a further 14 days. Valnemulin hydrochloride is fed at 50, 75, 100 and 150 ppm and compared with tiamulin hydrogen fumarate fed at 100 ppm and with unmedicated controls. Pigs with a range of clinical signs of disease are included in each treatment group. After allocation to the treatment groups the evidence of clinical disease is assessed daily and a clinical score assigned, rectal swabs are taken twice weekly for isolation of S. hyodysenteriae and all pigs are weighed at regular intervals. Food intake is also recorded. A post-mortem examination is carried out 24 days after challenge and the large intestine of each pig examined for the presence of lesions. Mucosal scrapings are also taken from 4 areas in the large intestine and cultured for S. hyodysenteriae.

The next experiment concerns Haemophilus parasuis. As to the kind of experiment: MIC against Haemophilus parasuis isolates. To be noted: for MIC: Glaesserella parasuis, 3 isolates. The format is cell-based. On the procedure:
(§1) The minimal inhibitory concentration (MIC) of valnemulin hydrochloride against recent isolates of Pasteurelia multocida, Haemophilus pleuropneumoniae and Haemophilus parasuis originating from porcine respiratory material is determined and compared with tiamulin. […] Three of the Pasteurella isolates were toxigenic strains of Pasteurella multocida. For H. pleuropneumoniae and H. parasuis, on the day before testing a single loopful of each of the pure cultures is inoculated into 10 ml of Todd & Hewitt broth (Unipath CM190) containing 1% donor calf serum and 2 mg per ml of nicotinamide adenine dinucleotide (NAD). For P. multocida, […] a single loopful of each of the pure cultures is inoculated into 10 ml of nutrient broth No. 2 (Unipath CM67) containing 1% donor calf serum. Each of the prepared broth cultures are incubated for 18 hours at 37° C. in 10% CO2. […] For each test compound, standard control cultures of Oxford Staphylococcus aureus NCTC 6571 are also set up to validate the results of the MIC tests. In each case, broth cultures set up from the control organisms are identical to those of the organisms under test. Valnemulin is a hydrochloride, tiamulin is used as the hydrogen fumarate. […] Sensitised agar (Oxoid CM409) containing lysed horse blood (Oxoid SR50) is prepared according to the manufacturer's recommendations and adjusted to pH 7.4 it necessary. […] Four replicate plates are prepared from each dilution. […] After inoculation the growth of the organisms is examined initially by eye followed by microscopic examination on a stereo zoom microscope. The MIC value is taken as the lowest concentration of test compound at which no growth can be detected at the point of inoculation on all four plates by microscopic examination.

Experiment [2] concerns Haemophilus pleuropneumoniae. Nature of the experiment: MIC against Haemophilus pleuropneumoniae isolates. Type of experiment: cell-based. To be noted: for MIC: Actinobacillus pleuropneumoniae, 10 isolates. As to the method:
as §1

Another experiment has as its system Pasteurella multocida. As to the kind of experiment: MIC against Pasteurella multocida isolates. The format is cell-based. The conditions noted are these: for MIC: Pasteurella multocida, 10 isolates. As to the method: as §1
Experiment [3] has as its system S. hyodysenteriae. Nature of the experiment: MIC determination by agar dilution, 10 strains from porcine faeces. The format is cell-based, Serpulina hyodysenteriae. The conditions noted are these: for MIC: Brachyspira hyodysenteriae. As to the method: Minimum inhibitory concentrations (MICs) are determined against 10 strains of S. hyodysenteriae isolated from porcine faeces, by the agar dilution method. NCTC (National Collection of Type Cultures) strains or reference strains are used as controls in all MIC tests. The agar medium for S. hyodysenteriae consists of BAB2 (Unipath CM271) containing 7% whole defibrinated sterile sheep blood. All antimicrobial agents are tested in doubling dilutions. Prepared antibiotic dilutions are added to an appropriate volume of MH agar, previously cooled to 50° C., mixed and 20 ml volumes poured. All S. hyodysenteriae incubations are performed in an anaerobic work station at 37° C. (+/-0.5° C.) (Don Whitley Scientific) which provides a strict anaerobic atmosphere comprising 80% nitrogen, 10% hydrogen and 10% carbon dioxide. All other incubations are performed at 37° C. All strains are incubated in an […] atmosphere at 37° C. for 24 hours. The numbers of the organisms are adjusted to an optical density (OD) equivalent to 1×10^8 colony forming units (cfu) per ml, using MH broth as a blank. The antibiotic containing plates are inoculated in duplicate using a multipoint inoculator (Denley Instruments) which delivers a plate inoculum of approximately 1 μl giving an inoculum of 10^4 -10^5 cfu per spot for all strains (Amon, J. Antimicrob. Chemother. 21 [1988] 701-710; Ericsson et al., Acta Pathol. Microbiol. et Immunol. Scand. 217 [1971] (B) Suppl., 1-90). Control plates are incubated under the same conditions as the test plates. The MICs are read after 24 and 48 hours, the latter being the definitive reading. The MIC is defined as the lowest concentration of antibiotic on which there is no growth, disregarding a single colony or a faint haze caused by the inoculum (National Committee for Clinical Laboratory Standards [1989], Antimicrobial Susceptibility Testing, NCCLC Publications SC3, Villanova, Pa., USA).

Where [4] appears, read: tiamulin 100 ppm, treatment period.

On to `C=C[C@]1(C)C[C@@H](OC(=O)CSCCN(CC)CC)[C@]2(C)[C@H](C)CC[C@]3(CCC(=O)[C@H]32)[C@@H](C)[C@@H]1O` [tiamulin hydrogen fumarate], for which, in the experiment on S. hyodysenteriae [1] (tiamulin 100 ppm), the “day by which improvement was seen in surviving pigs” value was no more than 8 days. The same compound yielded a mean clinical score with S. hyodysenteriae [1] (tiamulin 100 ppm) of 30. For the same compound, in the experiment with S. hyodysenteriae [1] (tiamulin 100 ppm), the mortality in words entry is given as “reduced mortality compared to unmedicated controls but did not prevent some deaths”. Further, in the experiment with S. hyodysenteriae [1] (tiamulin 100 ppm, last day of trial), the “pigs with swine dysentery in post treatment period” value is given as “one pig”. Further, in the experiment with S. hyodysenteriae [1] (setting [4]), the “animals that died or required euthanasia” value was 3 animals. The “daily live weight gain (DLWG)” value with S. hyodysenteriae [1] (setting [4]) amounted to 0.1. Besides, the “feed conversion ratio (FCR)” value in the experiment on S. hyodysenteriae [1] (setting [4]) was 6.4. Moreover, the minimal inhibitory concentration (MIC) is 0.7 µg/mL in the experiment on Haemophilus parasuis (18 h, read-out: MIC mean); 0.5 to 1 µg/mL in the experiment on Haemophilus parasuis (read-out: MIC range); 4.5 µg/mL in experiment [2] (18 h, read-out: MIC mean); 0.125 to 16 µg/mL in experiment [2] (read-out: MIC range); 9.2 µg/mL with Pasteurella multocida (18 h, read-out: MIC mean); 4 to 16 µg/mL in the experiment on Pasteurella multocida (read-out: MIC range). In the experiment with S. hyodysenteriae [3], this compound had a minimal inhibitory concentration (MIC) of 0.3 µg/mL.
For the compound `C=C[C@]1(C)C[C@@H](OC(=O)CSC(C)(C)CNC(=O)[C@H](N)C(C)C)[C@]2(C)[C@H](C)CC[C@]3(CCC(=O)[C@H]32)[C@@H](C)[C@@H]1O` [valnemulin hydrochloride, 14-O-[1-[(R)-2-amino-3-methylbutyrylamino]-2-methylpropan-2-ylthioacetyl]mutilin], the “shedding of S. hyodysenteriae in faeces” value in the experiment with S. hyodysenteriae [1] (all levels of valnemulin, after withdrawal of medicated feed) is given as “prevented by all levels of valnemulin”. For the same compound, the “p of clinical scores, valnemulin vs tiamulin” value in the experiment with S. hyodysenteriae [1] (days 3 to 10, all valnemulin groups) is recorded as less than 0.001. For the same compound, in the experiment on S. hyodysenteriae [1] (valnemulin 50, 75, 100, 150 ppm), the survival entry was “All pigs treated with valnemulin survived”. In addition, in the experiment on S. hyodysenteriae [1] (valnemulin 50, 75, 100 and 150 ppm), the “recovery from clinical swine dysentery compared to tiamulin” value was “reduction in the number of days that were needed to recover”. Besides, the “pigs with clinical signs in post treatment period” value in the experiment on S. hyodysenteriae [1] (valnemulin 50 ppm) is “one pig”. Also, the “pigs with clinical swine dysentery at post-mortem” value in the experiment on S. hyodysenteriae [1] (valnemulin 50 ppm) is listed as 1 pig. Also, in the experiment with S. hyodysenteriae [1] (valnemulin 50 ppm), the “pigs with reddening of the large intestine” value is on record as “one other pig”. Besides, in the experiment with S. hyodysenteriae [1] (valnemulin 50 ppm), the “time to clinical signs after withdrawal of medicated feed” value is 4 days. Moreover, in the experiment on S. hyodysenteriae [1] (valnemulin 75, 100 or 150 ppm), the “post-mortem lesions of swine dysentery” value is listed as “not seen”. In the experiment with S. hyodysenteriae [1] (valnemulin 75 ppm), the “pigs with S. hyodysenteriae in mucosal scrapings” value is recorded as “One pig”. The efficacy in words result with S. hyodysenteriae [1] (valnemulin 100 ppm) is reported as “highly effective”. In addition, in the experiment on S. hyodysenteriae [1] (valnemulin, all levels), the “day by which clinical disease was not seen” value was no more than 5 days. Further, the minimal inhibitory concentration (MIC) with Haemophilus parasuis (18 h, read-out: MIC mean) was 0.25 µg/mL; with Haemophilus parasuis (read-out: MIC range), 0.25 µg/mL; in experiment [2] (18 h, read-out: MIC mean), 0.85 µg/mL; in experiment [2] (read-out: MIC range) it was 0.125 to 4 µg/mL; in the experiment with Pasteurella multocida (18 h, read-out: MIC mean) it was 3.8 µg/mL; with Pasteurella multocida (read-out: MIC range) it was 2 to 8 µg/mL. The MIC in the experiment on S. hyodysenteriae [3] came out at 0.1 µg/mL. The “mean increase in activity compared with tiamulin” value is “three fold” with Haemophilus parasuis (H. parasuis); “five and a half fold” in experiment [2] (H. pleuropneumoniae); “two and a half fold” in the experiment with Pasteurella multocida (P. multocida). For the same compound, the “susceptibility of S. hyodysenteriae strains” value in the experiment on S. hyodysenteriae [3] (all strains) is on record as “susceptible”. The “most active of the agents tested by” value with S. hyodysenteriae [3] (vs tiamulin, lincomycin, tylosin, dimetridazole) is reported as 3-600 fold.
